Columns and labels:
TRP channel (TRPM8) = target: T1, TRP channel (TRPM8) (Mus musculus, UniProt Q8R4D5); experiment: Ca2+-imaging of stable HEK293T cell line TRPM8; type: cell-based; settings: HEK-293T; compound applied at 4 μM; read-out: Percent Inhibition TRPM8
T1 construct: Full-length cDNAs for mosquito (Anopheles gambiae) odorant receptor (OR1, OR2, OR7, OR8, OR28), and fly (Drosophila melanogaster) odorant receptor (Or47a, Or83b), mouse TRP channel (TRPM8); expressed in transfected cells
Outline: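 Stable HEK293T lines co-expressing the Anopheles ligand-specific OR with co-receptor OR7 (or mouse TRPM8 alone) were seeded on poly-D-lysine at 10,000 cells/well and cultured 2 days. Cells were loaded with Ca-4 dye for 1.5 hr at room temperature, then odorant/compound solutions in HBSS were added on an FDSS6000 reader.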

[1] = target: T2, serotonin receptor (5HT3) (Mus musculus, UniProt P23979); experiment: Ca2+-imaging of stable Flip-In T-Rex cell line 5HT3; type: cell-based; settings: for inhibition at 4 µM: compound applied at 4 μM, read-out: Percent Inhibition 5HT3; for IC50: Table B, read-out: IC50 5HT3
T2 construct: Full-length cDNAs for mosquito (Anopheles gambiae) odorant receptor; expressed in transfected cells
T2 sequence (P23979 24-489): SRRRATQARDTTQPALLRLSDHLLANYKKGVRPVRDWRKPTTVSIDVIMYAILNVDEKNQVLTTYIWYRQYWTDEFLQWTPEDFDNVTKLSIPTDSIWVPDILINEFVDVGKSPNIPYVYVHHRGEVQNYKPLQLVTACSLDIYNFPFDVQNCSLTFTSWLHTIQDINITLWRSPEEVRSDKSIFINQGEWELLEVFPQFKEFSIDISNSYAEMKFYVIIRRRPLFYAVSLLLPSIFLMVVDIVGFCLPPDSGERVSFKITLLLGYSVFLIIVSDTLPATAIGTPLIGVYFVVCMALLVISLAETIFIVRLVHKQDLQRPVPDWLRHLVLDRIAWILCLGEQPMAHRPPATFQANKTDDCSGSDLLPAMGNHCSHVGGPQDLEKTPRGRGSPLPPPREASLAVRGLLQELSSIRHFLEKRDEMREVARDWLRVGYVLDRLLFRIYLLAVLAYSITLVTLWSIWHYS
Outline: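 Calcium responses were read on an FDSS6000 (485 nm excitation, 525 nm emission) after Ca-4 loading for 1.5 h at room temperature. Cells were tetracycline-induced Flp-In T-REx lines stably carrying fly Or47a/Or83b or mouse 5HT3, plated 2 days ahead; compounds were co-delivered in HBSS odorant solution.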

T1 sequence (Q8R4D5 whole entry): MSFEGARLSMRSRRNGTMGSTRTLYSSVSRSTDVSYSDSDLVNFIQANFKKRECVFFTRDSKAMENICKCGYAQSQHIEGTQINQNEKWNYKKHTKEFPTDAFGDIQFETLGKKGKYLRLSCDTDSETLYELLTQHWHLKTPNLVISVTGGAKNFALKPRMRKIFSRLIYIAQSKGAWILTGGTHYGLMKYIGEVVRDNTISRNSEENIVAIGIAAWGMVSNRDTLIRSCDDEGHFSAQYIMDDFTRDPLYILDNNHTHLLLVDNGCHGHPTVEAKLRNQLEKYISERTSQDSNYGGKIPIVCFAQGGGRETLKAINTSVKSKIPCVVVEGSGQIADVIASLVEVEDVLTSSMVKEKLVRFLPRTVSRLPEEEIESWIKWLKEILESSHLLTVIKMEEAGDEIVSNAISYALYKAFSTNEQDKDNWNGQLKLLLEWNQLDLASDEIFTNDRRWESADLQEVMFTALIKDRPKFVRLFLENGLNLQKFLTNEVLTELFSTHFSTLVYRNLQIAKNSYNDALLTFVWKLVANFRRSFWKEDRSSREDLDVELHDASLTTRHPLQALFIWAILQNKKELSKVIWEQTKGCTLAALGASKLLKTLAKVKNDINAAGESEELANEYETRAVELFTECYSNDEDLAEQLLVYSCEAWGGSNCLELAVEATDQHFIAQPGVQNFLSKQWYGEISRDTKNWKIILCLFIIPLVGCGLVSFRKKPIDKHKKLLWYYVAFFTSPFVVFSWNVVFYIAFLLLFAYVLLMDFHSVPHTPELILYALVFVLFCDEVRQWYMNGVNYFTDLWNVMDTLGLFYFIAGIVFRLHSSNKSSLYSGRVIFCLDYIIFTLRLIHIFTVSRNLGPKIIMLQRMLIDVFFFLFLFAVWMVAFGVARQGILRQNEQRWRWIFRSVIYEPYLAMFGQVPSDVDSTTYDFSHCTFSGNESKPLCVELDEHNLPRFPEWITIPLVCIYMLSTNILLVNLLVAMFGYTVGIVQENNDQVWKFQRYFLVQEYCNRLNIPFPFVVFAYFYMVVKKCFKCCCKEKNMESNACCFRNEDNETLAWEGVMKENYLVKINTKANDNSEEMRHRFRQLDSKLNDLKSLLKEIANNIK

SMILES	inhibition at 4 µM (TRP channel (TRPM8)) [%]	inhibition at 4 µM [1] [%]	IC50 [1] [nM]
CCN(CC)C(=O)Oc1ccc2c(ccn2Cc2cccc(C)c2)c1NC(=O)[C@H](C)OC(C)=O [RU-0075468]	< 25	< 25	–
CN(C)c1nc(N(C)C)nc(N(C)C)n1 [RU-0000619]	< 25	26 to 50	–
COc1ccc(N2CCN(C(=O)C3CC=CCC3C(=O)NCCCCc3ccccc3)CC2)cc1 (stereo not drawn) [RU-0026167]	26 to 50	< 25	–
CC(NC(=O)c1cc2n(n1)CCN(Cc1c(Cl)cccc1Cl)C2=O)c1ccccc1 (stereo not drawn) [RU-0045115]	< 25	< 25	–
COc1ccccc1N1CCN(C(=O)c2cc3n(n2)CCN(Cc2c(F)cccc2Cl)C3=O)CC1 [RU-0043595]	< 25	51 to 74	> 1000
O=C1CN(S(=O)(=O)c2c(F)cc(F)cc2F)CC2c3cccc(F)c3CCN12 (stereo not drawn) [RU-0076832]	< 25	26 to 50	–
COc1nc(OCC#N)nc(N2CCCCC2)n1 [RU-0006256]	26 to 50	26 to 50	–
COCCN(Cc1cc(Cl)ccc1OS(=O)(=O)c1ccc(F)cc1)C(=O)C1CCC1 [RU-0035287]	< 25	26 to 50	–
COCCNC(=O)c1ccc(CSc2nnc(-c3ccc(C)cc3)n2-c2ccccc2F)cc1 [RU-0051652]	< 25	26 to 50	–
COc1nc(NC(C)C)nc(NC(C)C)n1 [RU-0001534]	< 25	26 to 50	–
CCOC(=O)C(c1cccc(OC)c1)C1C=CC(NC(=O)c2cccs2)C1 (stereo not drawn) [RU-0074560]	< 25	< 25	–
COCCCN(CC(=O)N1CCc2sccc2C1COc1cccc(OC)c1)C(=O)c1ccccc1OC (stereo not drawn) [RU-0036294]	26 to 50	< 25	–
COc1ccc(C(=O)c2ccccc2)c(O)c1O [RU-0001617]	< 25	26 to 50	–
Cc1ccc(CN(Cc2ccc(F)cc2)C(=O)CN(C(=O)NC(C)(C)C)C2CC2)s1 [RU-0052360]	26 to 50	< 25	–
COc1ccc(N2CCN(C(=O)C3CC=CCC3C(=O)NC(c3ccccc3)c3ccccn3)CC2)cc1 (stereo not drawn) [RU-0026507]	< 25	26 to 50	–
CCOCCCN(CC(=O)N(Cc1ccc2c(c1)OCO2)Cc1sccc1C)C(=O)NC(C)(C)C [RU-0052340]	< 25	< 25	–
Cc1cc(C)c2c(c1C(=O)N1CCC3(CC1)C(=O)NCN3c1ccccc1)CC(C)(C)C2=O [RU-0025771]	26 to 50	26 to 50	–
CN(Cc1ccccc1)C(=O)CCC1CCN(C(=O)CCOc2ccccc2)CC1 [RU-0028727]	26 to 50	51 to 74	> 1000
Cc1ccc(-n2nc(C)c(CCC(=O)N3CCc4ccccc4C3)c2C)cc1Cl [RU-0026074]	26 to 50	< 25	–
CCOc1ccccc1C(=O)NNC(=O)COc1cc(C)cc(C)c1 [RU-0023245]	< 25	26 to 50	–
Cc1ccc(CN(CCc2ccccc2)C(=O)CN(C(=O)NC(C)(C)C)C(C)C)o1 [RU-0072008]	< 25	< 25	–
COCCCN(CC(=O)N1CCc2sccc2C1c1ccc(OC)cc1)C(=O)C(C)(C)CCl (stereo not drawn) [RU-0069950]	< 25	51 to 74	> 1000
CCCCc1nc(CN2CCc3c([nH]c4ccccc34)C2c2cccc(OC)c2OC)c[nH]1 (stereo not drawn) [RU-0031879]	26 to 50	< 25	–
CC(NCc1ccccc1)c1nc2ccccc2c(=O)n1-c1ccc(Cl)cc1 (stereo not drawn) [RU-0072535]	< 25	< 25	–
COC(=O)C(Cc1ccccc1)NC(=O)C1CC1(c1ccccc1)c1ccccc1 (stereo not drawn) [RU-0028029]	26 to 50	26 to 50	–
COc1cc(OC)cc(C2NC(=O)N(C)C3=C2C(=O)N(C2CCCCC2)C3)c1 (stereo not drawn) [RU-0047750]	< 25	26 to 50	–
COc1ccc(-c2nnc(SCc3ccc(C#N)cc3)n2-c2ccc(C)cc2)cc1 [RU-0046426]	< 25	26 to 50	–
C=C[C@@](C)(O)CCC1C(=C)CCC2[C@@](C)(CO)CCC[C@]12C (stereo partly drawn) [RU-0001327]	< 25	26 to 50	–
CCOC(=O)C(c1ccc(OC)c(OC)c1)C1C=CC(NC(=O)c2ccc3c(c2)OCO3)C1 (stereo not drawn) [RU-0049030]	< 25	< 25	–
COCCCN(CC(=O)N1CCc2sccc2C1COc1cccc(OC)c1)C(=O)Cc1ccccc1 (stereo not drawn) [RU-0036264]	26 to 50	< 25	–

From US20130324522A1, “INSECT ODORANT RECEPTOR ANTAGONISTS” (THE ROCKEFELLER UNIVERSITY, priority 2010, published 2013)
